Reference: ChEMBL document CHEMBL3864173, “Design and Synthesis of Novel Macrocyclic Mer Tyrosine Kinase Inhibitors” (ACS Med Chem Lett, 2016)

Assay: Solubility of the compound at pH 7.4
Assay type: physicochemical
Settings: buffer

solubility: 47 mg/mL
Structure (SMILES): CCCCNc1ncc2c(-c3ccc(CN4CCN(C)CC4)cc3)cn([C@H]3CC[C@H](O)CC3)c2n1.Cl
